Measured values reported in patent US11951094B2, “TLR2 modulator compounds, pharmaceutical compositions and uses thereof” (Axial Therapeutics, Inc., priority 2020, dated 2024).
Where a name gives a salt, the structure may show the parent alone.

Each compound was assayed against TLR2 (Homo sapiens, UniProt O60603) (assay: TLR2 agonist screening assay, HEK-Blue TLR2 reporter cell line (NF-kB-driven SEAP, absorbance at 600 nm)). Conditions: HEK-Blue TLR2 reporter cells, agonist mode; average of all runs (Table 3).
Assay type: cell-based
Set-up: host or cells: HEK-293 (HEK-Blue TLR2 reporter cell line)
Procedure, shortened: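 EC50 values come from 600 nm absorbance of SEAP-converted substrate after overnight agonist exposure. The reporter line was HEK-293 engineered with TLR2 and an NF-kB-SEAP construct, seeded at about 40,000 cells per well 16-24 h beforehand. Compounds were added at 1% final DMSO.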

Sequence of TLR2 (O60603 21-784): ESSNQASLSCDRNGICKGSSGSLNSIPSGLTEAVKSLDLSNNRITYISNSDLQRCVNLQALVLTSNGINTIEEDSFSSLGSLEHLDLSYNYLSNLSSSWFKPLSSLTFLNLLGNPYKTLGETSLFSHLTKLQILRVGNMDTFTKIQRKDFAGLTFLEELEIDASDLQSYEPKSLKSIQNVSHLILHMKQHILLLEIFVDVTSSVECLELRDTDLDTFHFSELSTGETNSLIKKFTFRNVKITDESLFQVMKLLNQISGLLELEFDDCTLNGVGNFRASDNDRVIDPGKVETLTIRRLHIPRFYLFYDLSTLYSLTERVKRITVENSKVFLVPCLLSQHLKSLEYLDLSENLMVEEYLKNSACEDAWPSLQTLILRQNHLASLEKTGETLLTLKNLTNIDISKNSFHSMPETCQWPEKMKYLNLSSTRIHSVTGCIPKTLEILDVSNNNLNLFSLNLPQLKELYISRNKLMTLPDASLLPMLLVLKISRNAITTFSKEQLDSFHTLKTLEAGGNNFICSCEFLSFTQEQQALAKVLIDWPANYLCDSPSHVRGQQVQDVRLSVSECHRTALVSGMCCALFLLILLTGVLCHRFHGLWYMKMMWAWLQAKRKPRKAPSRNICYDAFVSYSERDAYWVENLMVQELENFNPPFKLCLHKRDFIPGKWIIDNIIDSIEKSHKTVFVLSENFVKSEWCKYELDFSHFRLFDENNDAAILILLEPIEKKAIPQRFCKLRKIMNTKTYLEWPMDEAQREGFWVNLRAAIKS

Structure (SMILES)	EC50 [µM]
CCCCCCNC(=O)[C@@H]1C[C@H](C(=O)NCCCCCC)CN(C(=O)c2ccc(C(=O)N3C[C@@H](C(=O)N[C@H]4C[C@@H]4c4ccccc4)[C@H](C(=O)N[C@H]4C[C@@H]4c4ccccc4)C3)cc2)C1 (relative stereo) [Compound 038, (3R*,5S*)-1-(4-((3S,4S)-3,4-bis(((1S,2R)-2-phenylcyclopropyl)carbamoyl)pyrrolidine-1-carbonyl)benzoyl)-N3,N5-dihexylpiperidine-3,5-dicarboxamide]	0.351 to 1
CCCCCCCCCCCCCCNC(=O)[C@@H]1CN(C(=O)c2ccc(C(=O)N3C[C@@H](C(=O)N[C@H]4C[C@@H]4c4ccccc4)[C@H](C(=O)N[C@H]4C[C@@H]4c4ccccc4)C3)cc2)CCN1C [Compound 069, (3S,4S)-1-(4-((S)-4-methyl-3-(tetradecylcarbamoyl)piperazine-1-carbonyl)benzoyl)-N3,N4-bis ((1S,2R)-2-phenylcyclopropyl) pyrrolidine-3,4-dicarboxamide formate]	0.351 to 1
CCCCCCCC(=O)N1CCN(C(=O)c2ccc(C(=O)N3C[C@@H](C(=O)N[C@H]4C[C@@H]4c4ccccc4)[C@H](C(=O)N[C@H]4C[C@@H]4c4ccccc4)C3)cc2)CC1C(=O)NCC (stereo partly drawn) [Compound 048, (3S,4S)-1-(4-(3-(ethylcarbamoyl)-4-octanoylpiperazine-1-carbonyl)benzoyl)-N3,N4-bis ((1S,2R)-2-phenylcyclopropyl) pyrrolidine-3,4-dicarboxamide]	0.351 to 1
CCCCCCNC(=O)[C@@H]1CN(C(=O)c2ccc(C(=O)N3C[C@@H](C(=O)N[C@H]4C[C@@H]4c4ccccc4)[C@H](C(=O)N[C@H]4C[C@@H]4c4ccccc4)C3)cc2)C[C@H]1O (relative stereo) [Compound 033, (3S,4S)-1-(4-((3R*,4S*)-3-(hexylcarbamoyl)-4-hydroxypyrrolidine-1-carbonyl)benzoyl)-N3,N4-bis((1S,2R)-2-phenylcyclopropyl)pyrrolidine-3,4-dicarboxamide]	0.051 to 0.35
CCCCCCNC(=O)[C@@H]1CN(C(=O)c2ccc(C(=O)N3C[C@@H](C(=O)N[C@H]4C[C@@H]4c4ccccc4)[C@H](C(=O)N[C@H]4C[C@@H]4c4ccccc4)C3)cc2)C[C@@H]1O (racemic) [Compound 034, (3S,4S)-1-(4-((3R*,4R*)-3-(hexylcarbamoyl)-4-hydroxypyrrolidine-1-carbonyl)benzoyl)-N3,N4-bis((1S,2R)-2-phenylcyclopropyl)pyrrolidine-3,4-dicarboxamide]	0.351 to 1
CCCCCCCC(=O)N1CC(=O)N(Cc2ccc(C(=O)N3C[C@@H](C(=O)N[C@H]4C[C@@H]4c4ccccc4)[C@H](C(=O)N[C@H]4C[C@@H]4c4ccccc4)C3)cc2)C[C@@H]1C(=O)NCCCCCC [Compound 074, (3S,4S)-1-(4-(((R)-5-(hexylcarbamoyl)-4-octanoyl-2-oxopiperazin-1-yl)methyl)benzoyl)-N3,N4-bis((1S,2R)-2-phenylcyclopropyl)pyrrolidine-3,4-dicarboxamide]	0.051 to 0.35
CCCCCCN(CCCCCC)C(=O)[C@H]1CCN(C(=O)c2ccc(C(=O)N3C[C@@H](C(=O)N[C@H]4C[C@@H]4c4ccccc4)[C@H](C(=O)N[C@H]4C[C@@H]4c4ccccc4)C3)cc2)C1 [Compound 009]	> 1
CCCCCN(CCCCC)C(=O)[C@H]1CCN(C(=O)c2ccc(C(=O)N3C[C@@H](C(=O)N[C@H]4C[C@@H]4c4ccccc4)[C@H](C(=O)N[C@H]4C[C@@H]4c4ccccc4)C3)cc2)C1 [Compound 022]	> 1

Same assay, conditions: HEK-Blue TLR2 reporter cells, agonist mode; average of all runs (Table 4)

Structure (SMILES)	EC50 [µM]
CCCCCCCCCCCCCCNC(=O)[C@H]1CN(C(=O)c2ccc(C(=O)N3C[C@@H](C(=O)N[C@H]4C[C@@H]4c4ccccc4)[C@H](C(=O)N[C@H]4C[C@@H]4c4ccccc4)C3)cc2)CCN1C(C)=O [Compound 163, (3S,4S)-1-(4-((R)-4-acetyl-3-(tetradecylcarbamoyl)piperazine-1-carbonyl)benzoyl)-N3,N4-bis((1S,2R)-2-phenylcyclopropyl)pyrrolidine-3,4-dicarboxamide]	0.351 to 1
CCCCCCCCCCCCCCNC(=O)[C@H]1CN(C(c2ccc(C(=O)N3C[C@@H](C(=O)N[C@H]4C[C@@H]4c4ccccc4)[C@H](C(=O)N[C@H]4C[C@@H]4c4ccccc4)C3)cc2)C(F)(F)F)CCN1C (stereo partly drawn) [Compound 132, (3S,4S)—N3,N4-bis((1S,2R)-2-phenylcyclopropyl)-1-(4-(2,2,2-trifluoro-1-((R)-4-methyl-3-(tetradecylcarbamoyl)piperazin-1-yl)ethyl)benzoyl)pyrrolidine-3,4-dicarboxamide]	0.051 to 0.35
CCCCCCCCCCCCNC(=O)N[C@H]1CN(C(c2ccc(C(=O)N3C[C@@H](C(=O)N[C@H]4C[C@@H]4c4ccccc4)[C@H](C(=O)N[C@H]4C[C@@H]4c4ccccc4)C3)cc2)C(F)(F)F)C[C@@H]1OC (single isomer, unassigned) [Compound 232, (3S,4S)-1-(4-((R*)-1-((3S,4S)-3-(3-dodecylureido)-4-methoxypyrrolidin-1-yl)-2,2,2-trifluoroethyl)benzoyl)-N3,N4-bis((1S,2R)-2-phenylcyclopropyl)pyrrolidine-3,4-dicarboxamide]	0.0001 to 0.05
CCCCCCC(=O)N[C@@H](CNC(=O)c1ccc(C(=O)N2C[C@@H](C(=O)N[C@H]3C[C@@H]3c3ccccc3)[C@H](C(=O)N[C@H]3C[C@@H]3c3ccccc3)C2)cc1)C(=O)NCc1ccc(F)cc1 [Compound 128, (3S,4S)-1-(4-(((S)-3-((4-fluorobenzyl)amino)-2-heptanamido-3-oxopropyl)carbamoyl)benzoyl)-N3,N4-bis((1S,2R)-2-phenylcyclopropyl)pyrrolidine-3,4-dicarboxamide]	> 1
CCCCCCCC(=O)N1CCCN(C(=O)c2cccc(C(=O)N3C[C@@H](C(=O)N[C@H]4C[C@@H]4c4ccccc4)[C@H](C(=O)N[C@H]4C[C@@H]4c4ccccc4)C3)c2)C[C@@H]1C(=O)NCCCCCC (single isomer, unassigned) [Compound 191]	0.351 to 1
CCCCCCCCCCCCCCNC(=O)[C@H]1CN(S(=O)(=O)c2cccc(C(=O)N3C[C@@H](C(=O)N[C@H]4C[C@@H]4c4ccccc4)[C@H](C(=O)N[C@H]4C[C@@H]4c4ccccc4)C3)c2)CCN1C(C)=O [Compound 192, (3S,4S)-1-(3-(((R)-4-acetyl-3-(tetradecylcarbamoyl)piperazin-1-yl)sulfonyl)benzoyl)-N3,N4-bis((1S,2R)-2-phenylcyclopropyl)pyrrolidine-3,4-dicarboxamide]	0.351 to 1
CCCCCCCCCCCCCCNC(=O)[C@@H]1CN(C(=O)c2ccc(C(=O)N3C[C@@H](C(=O)N[C@H]4C[C@@H]4c4ccccc4)[C@H](C(=O)N[C@H]4C[C@@H]4c4ccccc4)C3)cc2)CCN1C(=O)C(C)C [Compound 250, (3S,4S)-1-(4-((S)-4-isobutyryl-3-(tetradecylcarbamoyl)piperazine-1-carbonyl)benzoyl)-N3,N4-bis((1S,2R)-2-phenylcyclopropyl)pyrrolidine-3,4-dicarboxamide]	> 1
CCCCCCCCCCCCCCC(=O)N[C@@H]1CN(C(=O)c2ccc(C(=O)N3C[C@@H](C(=O)N[C@H]4C[C@@H]4c4ccccc4)[C@H](C(=O)N[C@H]4C[C@@H]4c4ccccc4)C3)cc2)C[C@H]1OC [Compound 154, (3S,4S)-1-(4-((3R,4R)-3-methoxy-4-pentadecanamidopyrrolidine-1-carbonyl)benzoyl)-N3,N4-bis((1S,2R)-2-phenylcyclopropyl) pyrrolidine-3,4-dicarboxamide]	0.351 to 1
CCCCCCCN[C@H]1CN(C(=O)c2ccc(C(=O)N3C[C@@H](C(=O)N[C@H]4C[C@@H]4c4ccccc4)[C@H](C(=O)N[C@H]4C[C@@H]4c4ccccc4)C3)cc2)C[C@@H]1OCCCCCCC [Compound 089, (3S,4S)-1-(4-((3S,4S)-3-(heptylamino)-4-(heptyloxy)pyrrolidine-1-carbonyl)benzoyl)-N3,N4-bis((1S,2R)-2-phenylcyclopropyl)pyrrolidine-3,4-dicarboxamide]	> 1
CCCCCCCCCCCCCCC(=O)N[C@H]1CN(C(=O)c2ccc(C(=O)N3C[C@@H](C(=O)N[C@H]4C[C@@H]4c4ccccc4)[C@H](C(=O)N[C@H]4C[C@@H]4c4ccccc4)C3)cc2)C[C@@H]1O [Compound 078, (3S,4S)-1-(4-((3S,4S)-3-hydroxy-4-pentadecanamidopyrrolidine-1-carbonyl)benzoyl)-N3,N4-bis((1S,2R)-2-phenylcyclopropyl)pyrrolidine-3,4-dicarboxamide]	0.051 to 0.35
CCCCCCCCCCCCCCNC(=O)[C@@H]1CN(C(=O)c2ccc(C(=O)N3C[C@@H](C(=O)N[C@H]4C[C@@H]4c4ccccc4)[C@H](C(=O)N[C@H]4C[C@@H]4c4ccccc4)C3)cc2)CCN1C(=O)CC(C)C [Compound 252, (3S,4S)-1-(4-((S)-4-(3-methylbutanoyl)-3-(tetradecylcarbamoyl)piperazine-1-carbonyl)benzoyl)-N3,N4-bis((1S,2R)-2-phenylcyclopropyl)pyrrolidine-3,4-dicarboxamide]	> 1
CCCCCCCCCC(=O)N[C@@H](CN1Cc2ccc(C(=O)N3C[C@@H](C(=O)N[C@H]4C[C@@H]4c4ccccc4)[C@H](C(=O)N[C@H]4C[C@@H]4c4ccccc4)C3)cc2C1=O)C(=O)NCCCCCC [Compound 241, (3S,4S)-1-(2-((S)-2-decanamido-3-(hexylamino)-3-oxopropyl)-3-oxoisoindoline-5-carbonyl)-N3,N4-bis((1S,2R)-2-phenylcyclopropyl)pyrrolidine-3,4-dicarboxamide]	0.051 to 0.35
CCCCCCCC(=O)N1CCCN(S(=O)(=O)c2cccc(C(=O)N3C[C@@H](C(=O)N[C@H]4C[C@@H]4c4ccccc4)[C@H](C(=O)N[C@H]4C[C@@H]4c4ccccc4)C3)c2)C[C@@H]1C(=O)NCCCCCC (single isomer, unassigned) [Compound 201]	0.351 to 1
CCCCCCCCCC(=O)N[C@@H](CNc1nc2cc(C(=O)N3C[C@@H](C(=O)N[C@H]4C[C@@H]4c4ccccc4)[C@H](C(=O)N[C@H]4C[C@@H]4c4ccccc4)C3)ccc2o1)C(=O)NCCCCCC [Compound 246, (3S,4S)-1-(2-(((S)-2-decanamido-3-(hexylamino)-3-oxopropyl)amino)benzo[d]oxazole-5-carbonyl)-N3,N4-bis((1S,2R)-2-phenylcyclopropyl)pyrrolidine-3,4-dicarboxamide]	> 1
